# Measured values published in ChEMBL document CHEMBL1153489, “Benzothiophene inhibitors of MK2. Part 1: structure-activity relationships, assessments of selectivity and cellular potency” (Bioorg Med Chem Lett, 2009).
# Activity calls are given as the source filed them. The calls are words filed in the database; no cut-off is given here.
# Key:
# [1] = biological target: T1, MAP kinase-activated protein kinase 2 (Homo sapiens, UniProt P49137); test: Inhibition of MK2
# [2] = biological target: T1, MAP kinase-activated protein kinase 2; test: Inhibition of MK2 in human U937 cells assessed as blockade of LPS-stimulated TNFalpha production; format: cell-based, U-937
# [3] = biological target: MAP kinase p38 (Homo sapiens) (UniProt O15264+Q15759+Q16539+P53778); test: Inhibition of p38 phosphorylation in LPS-stimulated human U937 cells; format: cell-based; settings: U-937
# [4] = biological target: Mitogen-activated protein kinase 9 (Homo sapiens) (UniProt P45984); test: Inhibition of JNK2 phosphorylation in LPS-stimulated human U937 cells; format: cell-based; settings: U-937
# Mitogen-activated protein kinase 9 (Homo sapiens), sequence (P45984 whole entry, looked up): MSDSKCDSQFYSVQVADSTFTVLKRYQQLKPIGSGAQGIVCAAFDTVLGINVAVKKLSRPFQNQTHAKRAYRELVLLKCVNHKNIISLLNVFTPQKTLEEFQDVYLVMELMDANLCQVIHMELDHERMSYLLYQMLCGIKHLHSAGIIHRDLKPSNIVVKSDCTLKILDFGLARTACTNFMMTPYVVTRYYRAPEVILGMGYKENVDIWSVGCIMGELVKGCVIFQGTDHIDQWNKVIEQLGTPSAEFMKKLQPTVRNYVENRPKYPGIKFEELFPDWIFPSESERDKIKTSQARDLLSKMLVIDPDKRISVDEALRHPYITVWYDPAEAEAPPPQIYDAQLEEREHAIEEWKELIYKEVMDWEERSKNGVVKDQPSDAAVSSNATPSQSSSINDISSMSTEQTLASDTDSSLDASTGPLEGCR
# T1 sequence (P49137 whole entry): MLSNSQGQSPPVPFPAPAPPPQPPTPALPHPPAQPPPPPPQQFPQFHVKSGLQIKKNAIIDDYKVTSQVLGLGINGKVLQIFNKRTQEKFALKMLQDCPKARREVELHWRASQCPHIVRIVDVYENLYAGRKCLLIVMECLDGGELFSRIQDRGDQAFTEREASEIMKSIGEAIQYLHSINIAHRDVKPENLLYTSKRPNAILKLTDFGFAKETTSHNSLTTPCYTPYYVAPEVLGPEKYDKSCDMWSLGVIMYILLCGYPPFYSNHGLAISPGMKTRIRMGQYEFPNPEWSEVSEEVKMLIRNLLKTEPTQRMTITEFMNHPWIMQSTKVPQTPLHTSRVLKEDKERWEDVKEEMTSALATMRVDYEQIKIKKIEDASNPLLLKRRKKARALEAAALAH
Compound,IC50 [1] [nM],IC50 [2] [nM],Activity [3],Activity [4]
COc1ccc2sc3c(c2c1)NC[C@@H](CN1CCCC1)NC3=O,> 20000,–,–,–
COc1ccc2sc3c(c2c1)NC[C@@H](CN)NC3=O,5,2600,–,–
COc1ccc2sc3c(c2c1)CCCNC3=O,500,4700,–,–
CCC[C@@H]1CNc2c(sc3ccc(OC)cc23)C(=O)N1,1520,5450,–,–
COc1cccc(COc2ccc3sc4c(c3c2)NC[C@@H](C)NC4=O)c1,110,4600,–,–
COc1ccc2sc3c(c2c1)NC[C@@H](CN1CCOCC1)NC3=O,> 20000,–,–,–
COC(=O)COc1ccc2sc3c(c2c1)NC[C@@H](C)NC3=O,3440,78000,–,–
COc1ccc2sc3c(c2c1)NC[C@@H](CN(C)Cc1ccccc1)NC3=O,1910,24000,–,–
COc1ccc2sc3c(c2c1)NC[C@@H](CO)NC3=O,14,400,inactive,inactive
C[C@@H]1CNc2c(sc3ccc(OCC4CC4)cc23)C(=O)N1,1320,27000,–,–

# Continued by falling IC50 [1], values first:
IC50 [1] [nM],IC50 [2] [nM],Compound,Activity [3],Activity [4]
1090,5500,COc1ccc2sc3c(c2c1)SCCNC3=O,–,–
570,21600,CCNC[C@@H]1CNc2c(sc3ccc(OC)cc23)C(=O)N1,–,–
570,21000,COc1ccc2sc3c(c2c1)NC[C@@H](CNCc1ccccc1)NC3=O,–,–
450,14900,CCCNC[C@@H]1CNc2c(sc3ccc(OC)cc23)C(=O)N1,–,–
270,3100,COCCOc1ccc2sc3c(c2c1)NC[C@@H](C)NC3=O,–,–
190,3500,C[C@@H]1CNc2c(sc3ccc(O)cc23)C(=O)N1,–,–
180,1400,COc1ccc2sc3c(c2c1)NCCNC3=O,–,–
30,1800,CC(C)COc1ccc2sc3c(c2c1)NC[C@@H](C)NC3=O,–,–
